“Also recorded” adds a separate entry of the source.
Key:
[1] = test system: EGF-stimulated HaCaT cells; test: Neutral Red cell viability assay on EGF-stimulated HaCaT cells (actinic keratosis model); assay type: cell-based, human; conditions: for potency relative to diclofenac (native drugs): ratio of IC50 values on EGF-stimulated HaCaT
Method: (§1) The immortalized human keratinocyte (HaCaT) cells and human squamous carcinoma (A431) cells (Sigma-Aldrich, Milan, Italy) were cultured in RPMI 1640 (Euroclone, Milan, Italy) supplemented with 10% fetal bovine serum (FBS), 100 U/mL penicillin, and 100 μg/mL streptomycin (Euroclone) at 37 °C in a humidified atmosphere containing 5% CO2.
HaCaT cells under the proliferative stimulus of EGF were used as model of actinic keratosis (AK), a precancerous disease that can progress in cutaneous squamous cell carcinoma (cSCC), according to the critical role played by the EGFR/Fyn/Src/Erk pathway for promoting cSCC formation. Cells were stimulated with EGF at the concentration 5 ng/mL for whole time of treatment with test compounds (see below).
(§2) Both HaCaT (EGF-stimulated) and A431 cells were incubated for 72 h with the test compounds at concentrations in the range 0.1–100 μM.
(§3) Cell viability was measured using the Neutral Red (NR) Assay (N2889, Sigma-Aldrich, Darmstadt, Germany) as previously reported. HaCaT and A431 cell lines were seeded at a density of 5 × 10^4 cells/well in 10% FBS medium in a 96-well plate. After 24 h, test compounds, dissolved in DMSO, were diluted in sterile culture medium supplemented with EGF (HaCaT cells) or 1% FBS (A431 cells) and added into the well plate. […] Diclofenac, HT, T and hybrids 1–4 were tested. After 72 h from treatment, NR was added and cells incubated for 2 h. At the end of the incubation period, cells were washed with PBS and, then, incubated for 10 min with a NR solubilisation solution (1% acetic acid in 50% ethanol). The absorbance was measured at 540 nm using the Infinite M200 NanoQuant instrument (Tecan, Salzburg, Austria). Optical density values from vehicle-treated cells were considered as 100% cell viability.

A431 cells = test: Neutral Red cell viability assay on A431 squamous carcinoma cells; assay type: cell-based, human; conditions: for IC50: neutral red, 0.1–100 μM, NR: not reached
Method: as §1, §2, §3

[2] = no reference given; cited from earlier work
[3] = In vitro cutaneous permeation through pig ear skin (Gummer-type diffusion cells); assay type: in vitro ADME; conditions: measured as hybrid 1 in receiving phase; 24 h
Source text: Porcine ears skin, obtained from freshly sacrificed animals in a local slaughterhouse, was used as model. After cleaning with depurated water, full-thickness skin was removed with a scalpel from the cartilage of the outer region. The excised pig ear skin was carefully deprived of the adhering fat and subcutaneous tissue. Prior to the experiments, the pig hairs were abscised and the skin was gently washed. The skin with a thickness about 1.46 ± 0.06 mm was placed in the Gummer-type diffusion cells with the stratum corneum facing the donor compartment and an available diffusion area of […]. […]
The concentration of diclofenac and hybrid 1 in receiving fluids and in the skin samples was selectively determined by HPLC. […]
Linear regression analysis of pseudo steady state diffusion plots allowed calculation of the following parameters: steady-state flux (J, nmols/cm^2·h), given by Q/At, where Q is the amount of permeant diffusing across area A in time t; lag time (h), indicating the time taken by the drug to saturate the membrane and reach the receiving phase, calculated from the X-axis intercept values of the regression lines and the amount of drug permeated at the end of the experiment (Q24h, nmols).

[4] = Homo sapiens, EGF-stimulated HaCaT (5 ng/mL EGF), 72 h, neutral red, 0.1–100 μM, NR: not reached
[5] = Homo sapiens, A-431, A431, 72 h
[6] = EGF-stimulated HaCaT (5 ng/mL EGF), 72 h, neutral red, 0.1–100 μM, NR: not reached

Molecule | IC50 [1, 4] [µM] | IC50 (A431 cells; [5]) [µM] | further results
O=C(CCCOC(=O)Cc1ccccc1Nc1c(Cl)cccc1Cl)OCCc1ccc(O)cc1 [hybrid 4, 4-Hydroxyphenethyl 4-(2-(2-((2,6-dichlorophenyl)amino)phenyl)acetoxy)butanoate] | > 100 | > 100 | effect on cell viability (in words) ([1]; EGF-stimulated HaCaT, 72 h): antiproliferative effect lower than that of diclofenac; also recorded: not able to induce modification in cell viability; effect on cell viability (in words) (A431 cells; A431, 72 h): not able to induce modification in cell viability
O=C(O)Cc1ccccc1Nc1c(Cl)cccc1Cl [diclofenac] | 67.1 ± 1.94 | 32 ± 1.05 | –
3-Hydroxyphenethyl 2-(2-((2,6-dichlorophenyl)amino)phenyl)acetate [hybrid 2] | – | – | IC50 [1, 6]: 16.1 ± 1.15 µM; potency relative to diclofenac (native drugs) [1]: 4 fold; IC50 (A431 cells; A431, 72 h): 27.5 ± 1.24 µM
O=C(CCCOC(=O)Cc1ccccc1Nc1c(Cl)cccc1Cl)OCCc1ccc(O)c(O)c1 [hybrid 3, 3,4-Dihydroxyphenethyl 4-(2-(2-((2,6-dichlorophenyl)amino)phenyl)acetoxy)butanoate] | 17.8 ± 1.09 | 30.7 ± 1.33 | –
O=C(O)Cc1ccccc1Nc1c(Cl)cccc1Cl [diclofenac sodium] | – | – | partition coefficient n-octanol/water, log POW [2]: 4.98
OCCc1ccc(O)c(O)c1 [HT, hydroxytyrosol, reference compound] | 72.3 ± 3.58 | > 100 | –
O=C(Cc1ccccc1Nc1c(Cl)cccc1Cl)OCCc1ccc(O)c(O)c1 [hybrid 1, 3,4-Dihydroxyphenethyl 2-(2-((2,6-dichlorophenyl)amino)phenyl)acetate] | 3.71 ± 1.08 | 13.5 ± 2.49 | potency relative to diclofenac (native drugs) [1]: about 20 fold; IC50 in A431 relative to IC50 in EGF-stimulated HaCaT (A431 cells; A431 vs EGF-stimulated HaCaT): about 4 fold; Flux [3]: did not permeate across the skin; melting point: 123 to 125 °C
OCCc1ccc(O)cc1 [T, tyrosol, reference compound] | > 100 | > 100 | IC50 ± SEM [1, 6]: not reached

From paper PMC6539072, “Diclofenac-Derived Hybrids for Treatment of Actinic Keratosis and Squamous Cell Carcinoma” (Molecules, 2019)
